Laboratory results as given in patent US7893288B2, “Poly-halogenated triazapentadiene compositions” (Board of Regents, The University of Texas System, priority 2007, dated 2011).
Several values for one entry are separate records, joined by “and”; a condition that tells them apart may be missing. Equal entries are not always repeated. Marks after values point to notes of the source that are not given here.

How the values were obtained:
Type in all cases: cell-based
Escherichia coli HB101 [1] = assay: Disk sensitivity test (modified Kirby-Bauer), E. coli;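 further: filter disk loaded with compound in DMSO laid on an LB agar bacterial lawn, kept overnight at 37 °C, then the inhibition zone around the disk is measured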
Protocol: (§1) Filter disks were provided as sterile filter paper (about 6 mm in diameter) and spotted with 20 μL of a selected compound. Each compound was initially dissolved in dimethylsulfoxide (DMSO); any subsequent dilutions were also made in DMSO. Each filter was placed on an LB agar plate spread with 100 μL of a bacterial culture that had been grown overnight in suitable LB broth. Plates were incubated overnight at 37° C., after which, the extent of growth inhibition around each filter disk was measured. Bacterial strains included Staphylococcus aureus (ATCC 25923), Pseudomonas aeruginosa PAO1, Bacillus subtilis W168 and Escherichia coli HB101. […] The latter two strains are non-pathogenic Gram-positive and Gram-negative bacterial strains, respectively.

[2] = tested on: Gram positive and Gram negative bacteria; assay: Antimicrobial activity, summary of TABLES 16-18
Protocol: The new class of fluorinated triazapentadiene compounds with and without metal complexation as described herein were analyzed for antibacterial activity against several bacterial strains (both Gram positive and Gram negative). Methods for antimicrobial analysis included a modified Kirby-Bauer method and a determination of their minimum inhibitory concentrations. In brief, the modified Kirby-Bauer method relied on placement of a filter disk impregnated with a desired compound on a solid growth medium. Bacteria were grown to a confluent lawn and the extent of growth inhibition was measured (e.g., as an extent/percentage of a clear zone on the disk and/or solid medium).
For MIC assessment, compounds were initially dissolved in DMSO and serial dilutions of soluble compounds were made in LB broth.

Bacillus subtilis W168 [3] = assay: Disk sensitivity test (modified Kirby-Bauer), B. subtilis;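 further: Compound-loaded filter disks on LB agar plates seeded with a bacterial lawn, plates held overnight at 37 °C, then the clear zone around each disk measured, compounds in DMSO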
[4] = tested on: Pseudomonas aeruginosa PAO1; assay: Minimum inhibitory concentration in LB broth, P. aeruginosa; settings: for Relative to AgNO3: efficacy per mole from MIC values
Bacillus subtilis W168 [5] = assay: Minimum inhibitory concentration in LB broth, B. subtilis; settings: for Relative to AgNO3: efficacy per mole from MIC values
Escherichia coli HB101 [6] = assay: Minimum inhibitory concentration in LB broth, E. coli; settings: for Relative to AgNO3: efficacy per mole from MIC values;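 on all read-outs here: broth dilution MIC, test compounds first taken up in DMSO, then serially diluted in LB medium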
[7] = tested on: Pseudomonas aeruginosa PAO1; assay: Disk sensitivity test (modified Kirby-Bauer), P. aeruginosa;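 further: Compound-loaded filter disks on LB agar lawns, DMSO as solvent, zone of inhibition around each disk read after overnight incubation at 37 °C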
Protocol: as §1

[8] = tested on: Staphylococcus aureus (ATCC 25923); assay: Minimum inhibitory concentration in LB broth, S. aureus; settings: for Relative to AgNO3: efficacy per mole from MIC values
[9] = tested on: Staphylococcus aureus (ATCC 25923); assay: Disk sensitivity test (modified Kirby-Bauer), S. aureus;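 further: Compound-loaded filter disks on LB agar plates seeded with a confluent bacterial lawn, compound dissolved in DMSO, plates kept overnight at 37 °C, then inhibition zone around disk measured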
Protocol: as §1

## Fc1cccc(C(F)(F)F)c1N=C(N=C([N]([Ag])c1c(F)cccc1C(F)(F)F)C(F)(F)C(F)(F)C(F)(F)F)C(F)(F)C(F)(F)C(F)(F)F [[N{(C3F7)C(2-F,6-CF3C6H3)N}2]Ag]
Escherichia coli HB101 [1]; 5.7 × 10^0 mM
  Diameter of the zone of growth inhibition: 12.5 mm
Escherichia coli HB101 [1]; 5.7 × 10^1 mM
  Diameter of the zone of growth inhibition: 22.0 mm
Escherichia coli HB101 [1]; 5.7 × 10^−1 mM
  Diameter of the zone of growth inhibition: 10.0 mm
Escherichia coli HB101 [1]; 5.7 × 10^−2 mM
  Diameter of the zone of growth inhibition: 9.0 mm
Escherichia coli HB101 [1]; 5.7 × 10^−3 mM
  Diameter of the zone of growth inhibition: 8.0 mm
[2]
  antimicrobial activity (in words): Effective
Bacillus subtilis W168 [3]; 5.7 × 10^0 mM
  Diameter of the zone of growth inhibition: 131.0 mm
Bacillus subtilis W168 [3]; 5.7 × 10^1 mM
  Diameter of the zone of growth inhibition: 115.0 mm
Bacillus subtilis W168 [3]; 5.7 × 10^−1 mM
  Diameter of the zone of growth inhibition: 78.0 mm
Bacillus subtilis W168 [3]; 5.7 × 10^−2 mM
  Diameter of the zone of growth inhibition: 39.0 mm
Bacillus subtilis W168 [3]; 5.7 × 10^−3 mM
  Diameter of the zone of growth inhibition: 10.0 mm
Bacillus subtilis W168 [3]; 5.7 × 10^−4 mM
  Diameter of the zone of growth inhibition: 10.0 mm
Bacillus subtilis W168 [3]; 5.7 × 10^−5 mM
  Diameter of the zone of growth inhibition: 9.0 mm
Bacillus subtilis W168 [3]; 5.7 × 10^−6 mM
  Diameter of the zone of growth inhibition: 9.0 mm
Bacillus subtilis W168 [3]; 5.7 × 10^−7 mM
  Diameter of the zone of growth inhibition: 7.5 mm
[4]
  MIC: 17.56 μg/ml and 2.1 × 10^−2 mM
  sensitivity of the bacteria to the compound (in words): most sensitive
  Relative to AgNO3: 8.76 × 10^−1
Bacillus subtilis W168 [5]
  MIC: 8.70 × 10^−2 μg/ml and 1.04 × 10^−4 mM
  Relative to AgNO3: 1413.46
Escherichia coli HB101 [6]
  MIC: 8.78 μg/ml and 1.00 × 10^−2 mM
  sensitivity of the bacteria to the compound (in words): most sensitive
  Relative to AgNO3: 5.89
[7]; 5.7 × 10^0 mM
  Diameter of the zone of growth inhibition: 15.0 mm
[7]; 5.7 × 10^1 mM
  Diameter of the zone of growth inhibition: 23.5 mm
[7]; 5.7 × 10^−1 mM
  Diameter of the zone of growth inhibition: 9.0 mm
[7]; 5.7 × 10^−2 mM
  Diameter of the zone of growth inhibition: 6.0 (NZ) mm
[7]; 5.7 × 10^−3 mM
  Diameter of the zone of growth inhibition: 6.0 (NZ) mm
[8]
  MIC: 8.78 × 10^−1 μg/ml and 1.05 × 10^−3 mM
  Relative to AgNO3: 70.10
[9]; 5.7 × 10^0 mM
  Diameter of the zone of growth inhibition: 14.0 mm
[9]; 5.7 × 10^1 mM
  Diameter of the zone of growth inhibition: 19.0 mm
[9]; 5.7 × 10^−1 mM
  Diameter of the zone of growth inhibition: 9.5 mm
[9]; 5.7 × 10^−2 mM
  Diameter of the zone of growth inhibition: 9.0 mm
[9]; 5.7 × 10^−3 mM
  Diameter of the zone of growth inhibition: 7.5 mm
[9]; 5.7 × 10^−4 mM
  Diameter of the zone of growth inhibition: 6.0 (NZ) mm
[9]; 5.7 × 10^−5 mM
  Diameter of the zone of growth inhibition: 6.0 (NZ) mm
[9]; 5.7 × 10^−6 mM
  Diameter of the zone of growth inhibition: 6.0 (NZ) mm
[9]; 5.7 × 10^−7 mM
  Diameter of the zone of growth inhibition: 6.0 (NZ) mm

## Fc1c(F)c(F)c(N=C(N=C([N]([Ag])c2c(F)c(F)c(F)c(F)c2F)C(F)(F)C(F)(F)C(F)(F)F)C(F)(F)C(F)(F)C(F)(F)F)c(F)c1F [[N{(C3F7)C(C6F5)N}2]Ag]
Escherichia coli HB101 [1]; 5.7 × 10^0 mM
  Diameter of the zone of growth inhibition: 14.0 mm
Escherichia coli HB101 [1]; 5.7 × 10^1 mM
  Diameter of the zone of growth inhibition: 18.0 mm
Escherichia coli HB101 [1]; 5.7 × 10^−1 mM
  Diameter of the zone of growth inhibition: 11.0 mm
Escherichia coli HB101 [1]; 5.7 × 10^−2 mM
  Diameter of the zone of growth inhibition: 8.5 mm
Escherichia coli HB101 [1]; 5.7 × 10^−3 mM
  Diameter of the zone of growth inhibition: 8.0 mm
Escherichia coli HB101 [1]; 5.7 × 10^−4 mM
  Diameter of the zone of growth inhibition: 6.0 (NZ) mm
Escherichia coli HB101 [1]; 5.7 × 10^−5 mM
  Diameter of the zone of growth inhibition: 6.0 (NZ) mm
Escherichia coli HB101 [1]; 5.7 × 10^−6 mM
  Diameter of the zone of growth inhibition: 6.0 (NZ) mm
[2]
  antimicrobial activity (in words): Effective
Bacillus subtilis W168 [3]; 5.7 × 10^0 mM
  Diameter of the zone of growth inhibition: 37.0 mm
Bacillus subtilis W168 [3]; 5.7 × 10^1 mM
  Diameter of the zone of growth inhibition: 47.0 mm
Bacillus subtilis W168 [3]; 5.7 × 10^−1 mM
  Diameter of the zone of growth inhibition: 38.0 mm
Bacillus subtilis W168 [3]; 5.7 × 10^−2 mM
  Diameter of the zone of growth inhibition: 22.0 mm
Bacillus subtilis W168 [3]; 5.7 × 10^−3 mM
  Diameter of the zone of growth inhibition: 11.0 mm
Bacillus subtilis W168 [3]; 5.7 × 10^−4 mM
  Diameter of the zone of growth inhibition: 7.5 mm
Bacillus subtilis W168 [3]; 5.7 × 10^−5 mM
  Diameter of the zone of growth inhibition: 6.0 (NZ) mm
Bacillus subtilis W168 [3]; 5.7 × 10^−6 mM
  Diameter of the zone of growth inhibition: 6.0 (NZ) mm
[4]
  MIC: 23.69 μg/ml and 2.80 × 10^−2 mM
  sensitivity of the bacteria to the compound (in words): most sensitive
  Relative to AgNO3: 6.57 × 10^−1
Bacillus subtilis W168 [5]
  MIC: 1.80 μg/ml and 2.13 × 10^−3 mM
  Relative to AgNO3: 69.01
Escherichia coli HB101 [6]
  MIC: 23.69 μg/ml and 2.80 × 10^−2 mM
  sensitivity of the bacteria to the compound (in words): most sensitive
  Relative to AgNO3: 2.10
[7]; 5.7 × 10^0 mM
  Diameter of the zone of growth inhibition: 16.5 mm
[7]; 5.7 × 10^1 mM
  Diameter of the zone of growth inhibition: 27.0 mm
[7]; 5.7 × 10^−1 mM
  Diameter of the zone of growth inhibition: 12.0 mm
[7]; 5.7 × 10^−2 mM
  Diameter of the zone of growth inhibition: 8.0 mm
[7]; 5.7 × 10^−3 mM
  Diameter of the zone of growth inhibition: 7.5 mm
[7]; 5.7 × 10^−4 mM
  Diameter of the zone of growth inhibition: 6.0 (NZ) mm
[7]; 5.7 × 10^−5 mM
  Diameter of the zone of growth inhibition: 6.0 (NZ) mm
[7]; 5.7 × 10^−6 mM
  Diameter of the zone of growth inhibition: 6.0 (NZ) mm
[8]
  MIC: 1.80 μg/ml and 2.13 × 10^−3 mM
  Relative to AgNO3: 34.45
[9]; 5.7 × 10^0 mM
  Diameter of the zone of growth inhibition: 33.0 mm
[9]; 5.7 × 10^1 mM
  Diameter of the zone of growth inhibition: 70.0 mm
[9]; 5.7 × 10^−1 mM
  Diameter of the zone of growth inhibition: 39.0 mm
[9]; 5.7 × 10^−2 mM
  Diameter of the zone of growth inhibition: 21.5 mm
[9]; 5.7 × 10^−3 mM
  Diameter of the zone of growth inhibition: 10.0 mm
[9]; 5.7 × 10^−4 mM
  Diameter of the zone of growth inhibition: 6.0 (NZ)^b mm
[9]; 5.7 × 10^−5 mM
  Diameter of the zone of growth inhibition: 6.0 (NZ) mm
[9]; 5.7 × 10^−6 mM
  Diameter of the zone of growth inhibition: 6.0 (NZ) mm
